These results are taken from patent US12370202B2, “Methods and compositions for inhibiting the NLRP3 inflammasome and/or LON protease” (TRITERPENOID THERAPEUTICS, INC., priority 2019, dated 2025).

In one experiment the test system is CCL2. The experiment can be described thus: CCL2 expression in LPS-stimulated human macrophages, RT-qPCR. The format is cell-based. The settings on record: 500 pM, 16 hours pretreatment, then 10 ng/ml LPS 24 hours. Here is the method:
FIG. 10 is a bar graph. CDDO-Me, CDDO-Im, CDDO-2P-Im, and CDDO-3P-Im inhibit expression of CCL2 in human macrophages at picomolar concentrations.
Human peripheral blood monocytes were isolated using CD14 magnetic beads and differentiated with 20 ng/ml M-CSF for with 5 days and pretreated or not with 300 nM CDDO-Me; 500 pM CDDO-Im; 500 pM CDDO-2p-Im; 500 pM CDDO-3p-Im for 16 hours, followed by stimulation with 10 ng/ml LPS for an additional 24 hours. Total RNA was extracted and analyzed by RT-qPCR (Tagman) for cytokine expression.
(In qPCR the cycle at which signal appears reflects the starting amount.)

The test system of a further experiment is NLRP3. The experiment can be described thus: Mono-sodium urate (MSU)-induced peritonitis. The format is in vivo, Mice. Conditions: MSU crystals 1 mg/mouse i.p.; lavage four to sixteen hours later. Here is the method: FIG. 7 is a bar graph. CDDO-Im, CDDO-2P-Im, and CDDO-3P-Im inhibit mono-sodium urate (MSU)-induced peritonitis. Peritoneal cavity IL-1β levels expressed as mean and SEM (n=6).
Mice received intraperitoneal (i.p.) injections of mono-sodium urate (MSU) crystals (1 mg/mouse) in the presence or absence of CDDO-Im, CDDO-2P-Im, or CDDO-3P-Im. Due to its particulate material, MSU crystals are potent activators of the NOD-like receptor NLRP3. Four to sixteen hours later a peritoneal lavage was conducted to collect supernatant from the peritoneal cavity.

In another experiment the test system is Caspase 1. As to the kind of experiment: Caspase 1 activation in LPS-primed BMDM, immunoblotting (caspase-p10). It is filed as cell-based, mouse. Conditions: different doses (30-1000 nM) 15 min before ATP (5 mM) 45 min. Here is the method: FIG. 5 depicts a Western blot. CDDO-Im, CDDO-2P-Im, and CDDO-3P-Im inhibit Caspase 1 activation. LPS primed BMDM were treated with different doses of CDDO-Im, CDDO-2P-Im, or CDDO-3P-Im for 15 min before ATP (5 mM) was added for 45 min. Medium supernatant (SUP) and cell extracts (Lys) were analyzed by immunoblotting.
The effects of the pyridyl derivatives of CDDO-IM, (specifically, CDDO-2P-Im and CDDO-3P-Im) on NLRP3 inflammasome activation were tested in mouse BMDMs. Cells were first primed with LPS for 4 hours, then pretreated with specific doses of either CDDO-Im, CDDO-2P-IM or CDDO-3P-Im (30-1000 nM) for 15 min before ATP was added for another 45 min. CDDO-Im and its pyridyl derivatives inhibited the amount of caspase-p10 (an auto-processed fragment of caspase-1) released into cell culture supernatants in a dose-dependent manner as measured by Western blot (FIG. 5). […] The effect on caspase-1 activation is specific for the NLRP3 inflammasome as the AIM2 inflammasome activation by poly(dA:dT) was not inhibited by the synthetic CDDO-Im derivatives (data not shown).
Background: Immunoblotting shows a protein as a band on a membrane.

The next experiment concerns RPMI8226 cells. As to the kind of experiment: MM cell proliferation (confluence), IncuCyte imaging. The format is cell-based, human. The settings on record: 72 hours. Here is the method:
(§1) FIG. 2 is a bar graph. CDDO-2P-Im inhibits proliferation of multiple myeloma cell line in vitro. 5T33MM, RPMI8226, and ARH77 cells were seeded in 96-well plates and incubated with CDDO-2P-Im (50 nM-150 nM). Confluence (cell proliferation) was measured using IncuCyte imaging after 72 hours. *p<0.01 compared to control.
(§2) FIG. 3 is a bar graph. […] Shown here are results for 5T33MM (50 nM TTX01/7.5 nM IXZ); RPMI8226 (100 nM TTX01/7.5 nM IXZ); and ARH77 (150 nM TTX01/10 nM IXZ). Confluence (cell proliferation) was measured using IncuCyte imaging after 72 hours.
(§3) To examine tumor-intrinsic effects of CDDO-2P-IM in the 5T33MM cell line and in human MM cells, conducted a series of in vitro studies was conducted. For these experiments, 96-well plates were first coated in poly-L-ornithine before cells were seeded (in triplicate), including the murine 5T33MM and the human RPMI8226, and ARH77 cell lines (15,000 cells per well). Cells were incubated in IncuCyte™ Live-Cell Analysis System for 72 hours (images were taken every 4 hours). To define dose-dependent effect of CDDO-2P-IM, cells were exposed to concentrations ranging from 50 nM to 150 nM. To examine potential synergy of CDDO-2P-IM with IXZ, MM cells were exposed to IXZ (7 nM-10 nM) either alone or in combination with CDDO-2P-IM.

A further experiment deals with ARH77 cells. The experiment is described as above. The format is cell-based, human. The settings on record: 72 hours. Here is the method: as §1, §2, §3
The subject of experiment [1] is primary cultures of patient-derived GBM cells. The experiment can be described thus: Cell viability in primary cultures of human GBM. It is filed as cell-based. Here is the method:
To define the capacity of CDDO-2P-IM to suppress the growth and viability of GBM, several well-characterized human GBM cell lines (U251, U-87MG, LN227, Gli36Δ5), primary cultures of patient-derived GBM cells (UVM04, D028), and normal human astrocytes (provided by Dr. Arti Gaur, Dartmouth College) were utilized.
The activity of CDDO-2P-IM in cultures of human GBM was assessed and similar nanomolar (nM) potency was observed. […] These changes in confluence observed by Incucyte® corresponded with a reduction in cell viability. Doses of CDDO-2P-IM that result in complete cell death of the LN227, U251 and U-87MG cell lines had no effect on the viability of primary human astrocytes in vitro (not shown).

In the next experiment the target is LONP1 (Homo sapiens, UniProt P36776). The experiment can be described thus: Binding to LONP1.
LONP1, sequence (P36776 68-959, species assumed): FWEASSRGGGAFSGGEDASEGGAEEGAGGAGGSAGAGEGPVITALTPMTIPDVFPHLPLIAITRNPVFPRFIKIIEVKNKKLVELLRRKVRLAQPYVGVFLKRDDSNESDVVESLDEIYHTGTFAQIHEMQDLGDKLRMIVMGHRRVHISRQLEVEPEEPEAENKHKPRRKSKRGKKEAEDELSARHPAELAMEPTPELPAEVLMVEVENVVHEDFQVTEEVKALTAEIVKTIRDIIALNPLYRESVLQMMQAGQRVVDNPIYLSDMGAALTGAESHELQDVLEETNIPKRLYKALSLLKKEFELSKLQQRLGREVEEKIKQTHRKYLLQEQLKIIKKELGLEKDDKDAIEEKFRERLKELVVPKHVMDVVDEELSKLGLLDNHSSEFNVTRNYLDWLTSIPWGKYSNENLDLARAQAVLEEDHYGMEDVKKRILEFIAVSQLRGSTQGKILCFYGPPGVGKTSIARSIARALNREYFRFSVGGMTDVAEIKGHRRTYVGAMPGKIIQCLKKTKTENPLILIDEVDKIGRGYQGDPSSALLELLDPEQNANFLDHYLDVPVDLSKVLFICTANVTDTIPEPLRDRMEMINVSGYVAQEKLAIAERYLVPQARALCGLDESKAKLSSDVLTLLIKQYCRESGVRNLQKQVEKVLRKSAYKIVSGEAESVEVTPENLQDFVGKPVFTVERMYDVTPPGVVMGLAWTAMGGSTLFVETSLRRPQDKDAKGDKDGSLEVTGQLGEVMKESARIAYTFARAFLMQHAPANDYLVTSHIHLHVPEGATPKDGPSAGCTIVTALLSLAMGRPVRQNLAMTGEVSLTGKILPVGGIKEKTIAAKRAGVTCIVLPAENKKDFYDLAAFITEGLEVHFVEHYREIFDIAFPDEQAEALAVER

Take `CC1(C)CC[C@]2(C(=O)n3cnc(-c4ccccn4)c3)CC[C@]3(C)[C@H](C(=O)C=C4[C@@]5(C)C=C(C#N)C(=O)C(C)(C)[C@@H]5CC[C@]43C)[C@@H]2C1` [CDDO-2P-Im, 1-[2-Cyano-3,12-dioxooleana-1,9(11)-dien-28-oyl]-4(-pyridin-2-yl)-1H-imidazole]: in the experiment with CCL2, the “expression of CCL2” value was “inhibit”. The “MSU-induced peritonitis (peritoneal cavity IL-1β levels)” value with NLRP3 was “inhibit”. The “Caspase 1 activation (caspase-p10 released into supernatant)” value with Caspase 1 is reported as “inhibit”. Further, the “proliferation (confluence)” value in the experiment on RPMI8226 cells (50 nM-150 nM) and with ARH77 cells (50 nM-150 nM) was “significant dose-dependent suppressive effects” each time. In addition, the “proliferation (confluence), combination with IXZ” value in the experiment on RPMI8226 cells (100 nM TTX01/7.5 nM IXZ) and in the experiment on ARH77 cells (150 nM TTX01/10 nM IXZ) was “act synergistically” throughout. In addition, the “proliferation (confluence), agent added alone” value in the experiment with RPMI8226 cells (100 nM TTX01 or 7.5 nM IXZ alone) and in the experiment with ARH77 cells (150 nM TTX01 or 10 nM IXZ alone) was “only partially effective” throughout. For the same molecule, the “concentrations at which a significant reduction in cell viability was observed” value in experiment [1] was “below 100 nM”. Besides, on LONP1, the “binding to LONP1” value was “shown to bind LONP1”.
